# According to patent publication US7629356B2, “Substituted pyrrolo[3,4-b]pyridinamines and pharmaceutical compositions” (AstraZeneca AB, priority 2007, dated 2009):
# Molecular target: T1, human β-Secretase (soluble part AA1-AA460, sBACE-Fc) (Homo sapiens, UniProt P56817)
# T1 construct: The soluble part of the human β-Secretase (AA1 -AA460) was cloned; Fc domain of IgG1; made in house
# Test: TR-FRET assay
# Type: biochemical
# Conditions: substrate (Europium)CEVNLDAEFK(Qsy7) 100 nM, pH 4.5, 15 min at RT
# Method: The enzyme used in the IGEN Cleavage-, Fluorescent-, TR-FRET- and BiaCore assays is described as follows:
# The soluble part of the human β-Secretase (AA1 -AA460) was cloned into the ASP2-Fc10-1-IRES-GFP-neoK mammalian expression vector. The gene was fused to the Fc domain of IgG1 (affinity tag) and stably cloned into HEK 293 cells. Purified sBACE-Fc is stored in Tris buffer, pH 9.2 and has a purity of 95%.
# Enzyme was diluted to 6 μg/mL and the substrate (Europium)CEVNLDAEFK(Qsy7) to 200 nM in reaction buffer (NaAcetate, chaps, triton x-100, EDTA pH 4.5). Compounds were diluted to the desired concentration in dimethyl sulfoxide (final dimethyl sulfoxide concentration in assay is 5%). The assay was done in a Costar 384 well round bottom, low volume, non-binding surface plate (Corning #3676). Enzyme (9 μL) and 1 μL of compound in dimethyl sulfoxide was added to the plate, mixed and pre-incubated for 10 min. Substrate (10 μL) was added and the reaction proceeded in the dark for 15 min at RT. The reaction was stopped with the addition of 7 μL NaAcetate, pH 9. The fluorescence of the product was measured on a Victor II plate reader with an excitation wavelength of 340 nm and an emission wavelength of 615 nm. The final concentration of the enzyme was 2.7 μg/ml and the final concentration of the substrate was 100 nM (Km of 290 nM). The dimethyl sulfoxide control defined the 100% activity level and 0% activity was defined by exclusion of the enzyme (using reaction buffer instead).
# T1 sequence (P56817 22-460): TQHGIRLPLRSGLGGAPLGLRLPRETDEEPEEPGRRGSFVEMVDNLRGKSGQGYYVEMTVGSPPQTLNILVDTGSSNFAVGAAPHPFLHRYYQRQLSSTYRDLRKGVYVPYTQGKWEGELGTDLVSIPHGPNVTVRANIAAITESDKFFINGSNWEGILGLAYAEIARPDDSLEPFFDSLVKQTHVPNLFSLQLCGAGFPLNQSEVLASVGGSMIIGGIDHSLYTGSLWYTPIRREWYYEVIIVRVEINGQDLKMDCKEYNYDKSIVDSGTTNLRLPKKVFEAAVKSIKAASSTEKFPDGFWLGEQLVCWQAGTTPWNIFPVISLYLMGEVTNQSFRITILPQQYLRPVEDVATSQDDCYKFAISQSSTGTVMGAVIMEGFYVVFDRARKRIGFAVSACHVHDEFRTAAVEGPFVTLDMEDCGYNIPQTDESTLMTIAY
row,Ki [nM],Compound
1,219,"COc1ccc(F)c(-c2cccc(C3(c4ccncc4)N=C(N)c4ncccc43)c2)c1 (stereo not drawn) [Example 11, 5-(2′-Fluoro-5-methoxybiphenyl-3-yl)-5-pyridin-4-yl-5H-pyrrolo[3,4-b]pyridin-7-amine 0.25 acetate]"
2,178,"COc1ccc(C2(c3cccc(-c4cncc(OC)c4)c3)N=C(N)c3ncccc32)cc1 (stereo not drawn) [Example 7, 5-(4-Methoxyphenyl)-5-[3-(5-methoxypyridin-3-yl)phenyl]-5H-pyrrolo[3,4-b]pyridin-7-amine]"
3,91,"NC1=NC(c2ccncc2)(c2cccc(-c3cncnc3)c2)c2cnccc21 (stereo not drawn) [Example 16, 3-Pyridin-4-yl-3-(3-pyrimidin-5-ylphenyl)-3H-pyrrolo[3,4-c]pyridin-1-amine]"
4,62,"NC1=NC(c2ccncc2)(c2cccc(-c3cccnc3F)c2)c2cnccc21 (stereo not drawn) [Example 17, 3-[3-(2-Fluoropyridin-3-yl)phenyl]-3-pyridin-4-yl-3H-pyrrolo[3,4-c]pyridin-1-amine]"
5,282,"COc1ccc(C2(c3cccc(-c4cncnc4)c3)N=C(N)c3ncccc32)cc1 (stereo not drawn) [Example 5, 5-(4-Methoxyphenyl)-5-(3-pyrimidin-5-ylphenyl)-5H-pyrrolo[3,4-b]pyridin-7-amine]"
6,93,"NC1=NC(c2ccncc2)(c2cccc(-c3cccnc3F)c2)c2ncccc21 (stereo not drawn) [Example 21, 7-[3-(2-Fluoropyridin-3-yl)phenyl]-7-pyridin-4-yl-7H-pyrrolo[3,4-b]pyridin-5-amine]"
7,295,"NC1=NC(c2ccncc2)(c2cccc(-c3cccnc3F)c2)c2cccnc21 (stereo not drawn) [Example 9, 5-[3-(2-Fluoropyridin-3-yl)phenyl]-5-pyridin-4-yl-5H-pyrrolo[3,4-b]pyridin-7-amine]"
8,275,"COc1ccc(C2(c3cccc(-c4cccnc4F)c3)N=C(N)c3ncccc32)cc1 (stereo not drawn) [Example 6, 5-[3-(2-Fluoropyridin-3-yl)phenyl]-5-(4-methoxyphenyl)-5H-pyrrolo[3,4-b]pyridin-7-amine]"
9,170,"NC1=NC(c2ccncc2)(c2cccc(-c3cncnc3)c2)c2ncccc21 (stereo not drawn) [Example 22, 7-Pyridin-4-yl-7-(3-pyrimidin-5-ylphenyl)-7H-pyrrolo[3,4-b]pyridin-5-amine]"
10,339,"COc1ccc(C2(c3cccc(-c4cccnc4)c3)N=C(N)c3ncccc32)cc1 (stereo not drawn) [Example 8, 5-(4-Methoxyphenyl)-5-(3-pyridin-3-ylphenyl)-5H-pyrrolo[3,4-b]pyridin-7-amine]"
11,324,"NC1=NC(c2ccncc2)(c2cccc(-c3cncnc3)c2)c2cccnc21 (stereo not drawn) [Example 10, 5-Pyridin-4-yl-5-(3-pyrimidin-5-ylphenyl)-5H-pyrrolo[3,4-b]pyridin-7-amine]"

row,Compound,Ki [nM]
1,"COc1cccc(-c2cccc(C3(c4ccncc4)N=C(N)c4ncccc43)c2)c1F (stereo not drawn) [Example 12, 5-(2′-Fluoro-3′-methoxybiphenyl-3-yl)-5-pyridin-4-yl-5H-pyrrolo[3,4-b]pyridin-7-amine 0.5 acetate]",398
